In PubChem BioAssay (NCI):
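Growth conditions: 96-well plates. Treatment: test compound, 48 hours, 5 concentrations. Analysis: linear interpolation between bracketing concentrations; unreached endpoints set to highest concentration. GI50 is the concentration that inhibits growth by half. TGI denotes the concentration required for complete inhibition of growth.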

Columns and labels:
Assay in all cases: NCI tumour cell line growth inhibition, 48 h
[1] = system: A498 renal
[2] = system: UACC-62 melanoma
[3] = system: HOP-92 NSCLC
[4] = system: TK-10 renal
[5] = system: SK-OV-3 ovarian
[6] = system: SF-295 CNS
[7] = system: SR leukemia
[8] = system: MALME-3M melanoma
[9] = system: SK-MEL-5 melanoma
[10] = system: COLO 205 colon
[11] = system: HS 578T breast
[12] = system: 786-0 renal
[13] = system: MOLT-4 leukemia
[14] = system: SK-MEL-28 melanoma
[15] = system: EKVX NSCLC
[16] = system: SF-268 CNS
[17] = system: A549 NSCLC
[18] = system: KM12 colon
[19] = system: ACHN renal
[20] = system: IGROV1 ovarian
[21] = system: HT29 colon
[22] = system: HL-60(TB) leukemia
[23] = system: U251 CNS
[24] = system: K-562 leukemia
[25] = system: NCI-H522 lung
[26] = system: MDA-MB-231 breast
[27] = system: MDA-MB-435
[28] = system: NCI/ADR-RES ovarian
[29] = system: CAKI-1 renal
[30] = system: T-47D breast
[31] = system: SNB-19 CNS
[32] = system: CCRF-CEM leukemia
[33] = system: SN12C renal
[34] = system: RXF 393 renal
[35] = system: SNB-75 CNS
[36] = system: NCI-H23 lung
[37] = system: HCC-2998 colon
[38] = system: HCT-15 colon
[39] = system: OVCAR-4 ovarian
[40] = system: M14 melanoma
[41] = system: UO-31 renal
[42] = system: MCF7 breast
[43] = system: OVCAR-5 ovarian
[44] = system: HCT-116 colon
[45] = system: SW-620 colon
[46] = system: HOP-62 NSCLC
[47] = system: UACC-257 melanoma
[48] = system: OVCAR-3 ovarian
[49] = system: NCI-H460 lung
[50] = system: SK-MEL-2 melanoma
[51] = system: OVCAR-8 ovarian
[52] = system: RPMI-8226 leukemia
[53] = system: BT-549 breast
[54] = system: LOX IMVI melanoma
[55] = system: PC-3 prostate
[56] = system: SF-539 CNS
[57] = system: DU-145 prostate
[58] = system: NCI-H226 lung

`Cc1cc2nc3c4cc(C=O)ccc4n(CCN(C)C)c3nc2cc1C` showed a GI50 [1] of 500 nM, a TGI [1] of 2090 nM and a GI50 [2] of 1750 nM. The TGI [2] was 3700 nM, the GI50 [3] was 1490 nM and the TGI [3] was 7350 nM. For the same compound, the GI50 [4] was 1970 nM, the TGI [4] was 6590 nM and the GI50 [5] was 2350 nM. It also gave a TGI [5] of 10900 nM, a GI50 [6] of 696 nM and a TGI [6] of 5690 nM. The GI50 [7] was 435 nM, the TGI [7] was 11100 nM and the GI50 [8] was 1290 nM. For the same compound, the TGI [8] was 2760 nM, the GI50 [9] was 1690 nM and the TGI [9] was 3330 nM. The GI50 [10] was 574 nM, the TGI [10] was 2100 nM and the GI50 [11] was 2250 nM. It also gave a TGI [11] of 6700 nM, a GI50 [12] of 1430 nM and a TGI [12] of 9960 nM. It also gave a GI50 [13] of 389 nM, a TGI [13] of 10300 nM and a GI50 [14] of 1780 nM. For the same compound, the TGI [14] was 3650 nM, the GI50 [15] was 2040 nM and the TGI [15] was 6270 nM. For the same compound, the GI50 [16] was 2050 nM, the TGI [16] was 6630 nM and the GI50 [17] was 851 nM. For the same compound, the TGI [17] was 10400 nM, the GI50 [18] was 2120 nM and the TGI [18] was 10000 nM. For the same compound, the GI50 [19] was 426 nM, the TGI [19] was 4560 nM and the GI50 [20] was 1520 nM. The TGI [20] was 6390 nM, the GI50 [21] was 656 nM and the TGI [21] was 3740 nM. It also gave a GI50 [22] of 1350 nM, a TGI [22] of 5840 nM and a GI50 [23] of 1650 nM. The TGI [23] was 10100 nM, the GI50 [24] was 820 nM and the TGI [24] was 18600 nM. For the same compound, the GI50 [25] was 1870 nM, the TGI [25] was 4910 nM and the GI50 [26] was 1830 nM. The TGI [26] was 6990 nM, the GI50 [27] was 1660 nM and the TGI [27] was 3070 nM. It also gave a GI50 [28] of 607 nM, a TGI [28] of 6970 nM and a GI50 [29] of 1700 nM. The TGI [29] was 9690 nM, the GI50 [30] was 2140 nM and the TGI [30] was 7040 nM. The GI50 [31] was 1650 nM, the TGI [31] was 9090 nM and the GI50 [32] was 1140 nM. The TGI [32] was 7770 nM, the GI50 [33] was 1030 nM and the TGI [33] was 8040 nM. The GI50 [34] was 1060 nM, the TGI [34] was 2740 nM and the GI50 [35] was 1980 nM. It also gave a TGI [35] of 5000 nM, a GI50 [36] of 1490 nM and a TGI [36] of 4450 nM. The GI50 [37] was 1330 nM, the TGI [37] was 3140 nM and the GI50 [38] was 1360 nM. The TGI [38] was 7240 nM, the GI50 [39] was 2120 nM and the TGI [39] was 7750 nM. It also gave a GI50 [40] of 1300 nM, a TGI [40] of 2950 nM and a GI50 [41] of 846 nM. It also gave a TGI [41] of 8780 nM, a GI50 [42] of 1820 nM and a TGI [42] of 5990 nM. It also gave a GI50 [43] of 2170 nM, a TGI [43] of 7230 nM and a GI50 [44] of 484 nM. For the same compound, the TGI [44] was 9100 nM, the GI50 [45] was 479 nM and the TGI [45] was 4310 nM. It also gave a GI50 [46] of 1540 nM, a TGI [46] of 10100 nM and a GI50 [47] of 1960 nM. It also gave a TGI [47] of 4800 nM, a GI50 [48] of 1970 nM and a TGI [48] of 6580 nM. For the same compound, the GI50 [49] was 1190 nM, the TGI [49] was 10100 nM and the GI50 [50] was 1760 nM. For the same compound, the TGI [50] was 3650 nM, the GI50 [51] was 777 nM and the TGI [51] was 10900 nM. The GI50 [52] was 1910 nM, the TGI [52] was 5160 nM and the GI50 [53] was 2150 nM. The TGI [53] was 5350 nM, the GI50 [54] was 532 nM and the TGI [54] was 2500 nM. It also gave a GI50 [55] of 1620 nM, a TGI [55] of 5710 nM and a GI50 [56] of 1510 nM. It also gave a TGI [56] of 3870 nM, a GI50 [57] of 3030 nM and a TGI [57] of 10600 nM. It also gave a GI50 [58] of 2070 nM and a TGI [58] of 7320 nM.
